Structures can show the parent of a compound that is named as a salt.
Test system: 5HT uptake
Test: Inhibition of 5HT uptake in vitro (synaptosomal uptake of 3H-serotonin, rat cerebral cortex)
Type: biochemical, Sprague-Dawley rat
Details: rat cortical synaptosomes, 37° C., 5 min, 50 nM 3H-5HT; tested as oxalate salt; read-out: IC50 5HT (concentration needed to inhibit 50% of serotonin uptake)
Procedure: This general procedure is set forth by Wong et al., in Drug Development Research 6:397-403 (1985).
Male Sprague-Dawley rats (110-150 g) from Harlan Industries (Cumberland, Ind.) were fed Purina Chow ad libitum for at least 3 days before being used in the studies. Rats were killed by decapitation. Whole brains were removed and dissected. Cerebral cortex was homogenized in 9 volumes of a medium containing 0.32 M sucrose and 10 mM glucose. Crude synaptosomal preparations were isolated after differential centrifugation at 1,000 g for 10 min. and 17,000 g for 28 min. The final pellets were suspended in the same medium and kept in ice until use within the same day.
Synaptosomal uptake of ^3 H-serotonin(^3 H-5-hydroxytryptamine, ^3 H-5HT) was determined as follows. Cortical synaptosomes (equivalent to 1 mg of protein) were incubated at 37° C. for 5 min in 1 ml of Krebsbicarbonate medium containing also 10 mM glucose, 0.1 mM iproniazid, 1 mM ascorbic acid, 0.17 mM EDTA and 50 nM ^3 H-5HT. The reaction mixture was immediately diluted with 2 ml of ice-chilled Krebs-bicarbonatebuffer and filtered under vacuum with a cell harvester (Brandel, Gaithersburg, Md). Filters were rinsed twice with approximately 5 ml of ice-chilled 0.9% saline and were transferred to a counting vial containing 10 ml of scintillation fluid (PCS, Amersham, Arlington Heights, Il). Radioactivity was measured by a liquid scintillation spectrophotometer. Accumulation of ^3 H-5HT at 4° C. represented the background and was subtracted from all samples.
The numbers in parentheses represent percent inhibition at 1000 nM.

SMILES	IC50 [µM]
CN(C)C(CCc1cccc2ccccc12)c1ccccc1 (stereo not shown) [Example 4, N,N-Dimethyl-1-phenyl-3-(1-naphthalenyl)propylaminium oxalate]	0.24
NC(CCCc1cccc2ccccc12)c1ccccc1 (stereo not shown) [Example 1, 1-Phenyl-4-(1-napthalenyl)butylaminium oxalate]	0.24
CNC(CCCc1cccc2ccccc12)c1ccccc1 (stereo not shown) [Example 3, N-Methyl-1-phenyl-4-(1-naphthalenyl)butyl-aminium oxalate]	0.07
CN(C)C(CCCc1cccc2ccccc12)c1ccccc1 (stereo not shown) [Example 2, N,N-Dimethyl-1-phenyl-4-(1-naphthalenyl)butylaminium oxalate]	0.03

Source: patent US4876282A, “1-Phenylalkylamines as selective serotonin uptake inhibitors” (Eli Lilly and Company, priority 1987, dated 1989)
